The record followed here is PubChem BioAssay AID1963828 (Molecular Pharmacology Branch, DTP, NCI, 2024).

One may read the viability, T/C as the ratio of treated to control. In general, pIC50 refers to the IC50 on a negative log10 scale, so that one unit is a factor of ten.

pIC50: −log10 of the molar value. Values joined by “and” are separate entries in the source; they are usually repeats but may differ in a detail not shown here. Equal values may be shown once.

The assay has as its system 991263-137-R1-J2-PDC complex spheroid viability. Briefly: Anticancer human tumor 991263-137-R1-J2-PDC patient-derived colon adenocarcinoma cell line growth inhibition [POLQ]. As to conditions: for viability, T/C: stronger effect = lower value; for pIC50: curve of compound. The method, then: Multicellular complex tumor spheroid response to Polymerase (POL) inhibitors (novobiocin, ART-558, RP6685) in combination with a variety of drugs and investigational agents in selected tumor cell lines
The POL inhibitors (novobiocin, ART-558, and RP6685) were evaluated both individually and in combination with standard of care and investigational anticancer small molecules within a complex spheroid model of solid tumors. . Complex spheroids include a stromal component modeled by human endothelial cells (HUVEC) and fibroblasts modeled by human mesenchymal stem cells (MSCs). The concentration ranges selected for each drug and investigational agent were based upon clinically achievable concentrations if the clinical Cmax of the agent was known.
Compounds. The drugs and investigational agents: novobiocin (NSC847541), ART-558 (NSC835418), RP-6685 (NSC848927), peposertib (NSC802822), ceralasertib (NSC780249), elimusertib (NSC800525), camonsertib (NSC841442), AZD-1390 (NSC803789), olaparib (NSC753686), talazoparib (NSC767125), rucaparib (NSC756644), sotorasib (NSC818433), MRTX-1133 (NSC836407), SN-38 (NSC673596), topotecan (NSC609699), epotoside (NSC141540), doxorubicin (NSC123127), gemcitabine (NSC613327), 5-fluorouracil (NSC19893), paclitaxel (NSC125973), vemurafenib (NSC761431), MSA-2 (NSC828583), SN-011 (NSC837082), adavosertib (NSC754352), prexasertib (NSC758257), carboplatin (NSC241240) and oxaliplatin (NSC266046), were obtained from the National Cancer Institute (NCI) Developmental Therapeutics Program Chemical Repository (21). The FDA-approved anticancer drug set is available from the Developmental Therapeutics Program at https://dtp.cancer.gov/organization/dscb/obtaining/. […] The stock solutions were prepared in dimethyl sulfoxide (DMSO, Sigma-Aldrich, St. Louis, MO, cat. D2650), except for the platinum compounds which were prepared in saline (Quality Biological, Gaithersburg, MD, cat. 114-055-101), at 800-fold the tested concentration and stored at -70 degrees C prior to their use. All drugs and investigational agents were tested over a range starting from a high concentration at or near the clinical Cmax and decreasing in half-log increments. If the clinical Cmax for an agent had not been determined, the highest concentration tested was 10 microM, except for SN-38, which was tested at a high concentration of 1 microM.
Cell Culture. All cells were maintained in an incubator at 37 degrees C and 5% CO2 with 95% humidity. The PDC lines were cultured according to standard operating procedures established by the NCI PDMR (https://pdmr.cancer.gov). Table 3 of the manuscript, lists the cell lines along with the number of the three cell types plated to form the mct-spheroids and media for tumor cell growth. After thawing, all PDC lines, except 997537-175-T-J1-PDC and 415267-285-R-J2-PDC, were cultured in Matrigel-coated flasks prepared with a working solution of 1X Ham's F-12 nutrient mix, without supplementation (Thermo Fisher Scientific, cat. 11765054), 100 U/mL penicillin-streptomycin (Thermo Fisher Scientific, cat. 15140122), and 2.5% Matrigel (Corning Inc., Corning, NY, cat. 354248) for the first three passages. The two PDC lines 997537-175-T-J1-PDC and 415267-285-R-J2-PDC were cultured on uncoated flasks. The 857933-349-R-J2-PDC line was cultured in 6C/Colon 1B media containing advanced DMEM/F-12 (Thermo Fisher Scientific, cat. 12634028), 10 mM HEPES (Thermo Fisher Scientific, cat. 15630080), 1X GlutaMAX supplement (Thermo Fisher Scientific, cat. 35050061), 0.1 mg/mL primocin (InvivoGen, San Diego, CA, cat. ant-pm-2), 10% defined fetal bovine serum, heat inactivated (HyClone Laboratories Inc., Logan, UT, cat. SH30070.03HI), 50% L-WRN conditioned media (ATCC, cat. CRL-3276), 1.25 mM N-Acetyl-L-cysteine (Sigma-Aldrich, cat. A9165), 10 mM nicotinamide (Sigma-Aldrich, cat. N0636), 1X B-27 supplement (Thermo Fisher Scientific, cat. 17504044), 1X N-2 supplement (Thermo Fisher Scientific, cat. […]
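Note: spheroids exposed to compounds for 7 days before readout.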

As for `C=CC(=O)N1CCN(c2nc(=O)n(-c3c(C)ccnc3C(C)C)c3nc(-c4c(O)cccc4F)c(F)cc23)C(C)C1` (stereo not given), the pIC50 is under 5.00. In addition, the viability, T/C (compound 0.0316 µM) was 119% and 99.2% and 102%. Also, the viability, T/C (compound 0.1 µM) is 104% (2×) and 89.8%. Further, the viability, T/C (compound 0.316 µM) was 107% and 105% and 103%. Moreover, the viability, T/C (compound 1 µM) was 118% and 107% and 104%. In addition, the viability, T/C (compound 10 µM) was 104% and 108% and 110%.
For `C=CCn1c(=O)c2cnc(Nc3ccc(N4CCN(C)CC4)cc3)nc2n1-c1cccc(C(C)(C)O)n1`, the pIC50 is under 6.00. Moreover, the viability, T/C (compound 0.00316 µM) is 103% and 105% and 106%. Besides, the viability, T/C (compound 0.01 µM) was 88.5% and 105% and 93.9%. In addition, the viability, T/C (compound 0.0316 µM) is 87% and 106% and 98.4%. Besides, the viability, T/C (compound 0.1 µM) was 107% and 98.7% and 95.2%. For the same compound, the viability, T/C (compound 1 µM) is 86.5% and 94.9% and 95%.
Regarding `CC(=O)O[C@H]1C(=O)[C@@]2(C)[C@H]([C@H](OC(=O)c3ccccc3)[C@]3(O)C[C@H](OC(=O)[C@H](O)[C@@H](NC(=O)c4ccccc4)c4ccccc4)C(C)=C1C3(C)C)[C@]1(OC(C)=O)CO[C@@H]1C[C@@H]2O`, the pIC50 was 5.84 and 5.61 and 5.79. Besides, the viability, T/C (compound 0.00949 µM) is 79.8% and 86.8% and 96.5%. For the setting “compound 0.03 µM”, the viability, T/C is 85.2% and 89.3% and 87.6%. For the same compound, where the note is “compound 0.0949 µM”, the viability, T/C was 85.4% and 84% and 87.8%. In addition, the viability, T/C (compound 0.3 µM) is 73.3% and 77.9% and 82.3%. For the same compound, for the setting “compound 0.949 µM”, the viability, T/C is 52.2% and 63.6% and 54.8%. In addition, under “compound 3 µM”, the viability, T/C was 46.8% and 47.3% and 44.4%.
For `CC(C)n1c(=O)n(C)c2cnc3cc(F)c(-c4ccc(OCCCN5CCCCC5)nc4)cc3c21`, the pIC50 was under 5.00. Moreover, for the setting “compound 0.0316 µM”, the viability, T/C is 101% and 103% and 89.4%. In addition, under “compound 0.1 µM”, the viability, T/C was 103% and 104% and 95.9%. The viability, T/C (compound 0.316 µM) was 85.1% and 103% and 99.6%. Besides, under “compound 1 µM”, the viability, T/C was 110% and 121% and 129%. The viability, T/C (compound 3.16 µM) is 101% and 104% and 89.3%.
As to `CC1COCCN1c1cc(-c2ccnn2C)c2ccnc(-c3ccn[nH]3)c2n1` (stereo not given), the negative logarithm of the IC50 (pIC50) is 5.87 and 6.12 and 5.77. Further, the viability, T/C (compound 0.0316 µM) is 112% and 99.9% and 100%. Moreover, the viability, T/C (compound 0.1 µM) was 86.5% and 89.2% and 93.4%. Further, the viability, T/C (compound 0.316 µM) was 81.6% and 77.2% and 83%. Besides, the viability, T/C (compound 1 µM) is 52.1% and 41.8% and 54.8%. The viability, T/C (compound 3.16 µM) was 35.4% and 24% and 43.9%. For the same compound, the viability, T/C (compound 10 µM) was 28.9% and 25.4% and 31.9%.
For `CC1COCCN1c1cc(C2(S(C)(=N)=O)CC2)nc(-c2ccnc3[nH]ccc23)n1` (stereo not given), the pIC50 was under 5.00. The viability, T/C (compound 0.0316 µM) was 107% and 98.9% and 98.6%. The viability, T/C (compound 0.1 µM) is 96.1% and 109% and 104%. Moreover, where the note is “compound 0.316 µM”, the viability, T/C was 100% and 94.6% and 92.8%. Under “compound 1 µM”, the viability, T/C was 103% and 101% and 95.1%. Also, the viability, T/C (compound 3.16 µM) is 83% and 97.9% and 103%. For the same compound, the viability, T/C (compound 10 µM) is 75.5% and 93.9% and 74.7%.
For `CCCS(=O)(=O)Nc1ccc(F)c(C(=O)c2c[nH]c3ncc(-c4ccc(Cl)cc4)cc23)c1F`, the pIC50 was under 5.00. In addition, under “compound 0.0316 µM”, the viability, T/C is 110% and 93.5% and 111%. For the same compound, the viability, T/C (compound 0.1 µM) was 99.2% and 90.3% and 101%. Further, for the setting “compound 0.316 µM”, the viability, T/C was 108% and 94.4% and 86%. Moreover, the viability, T/C (compound 3.16 µM) was 114% and 104% and 107%. In addition, the viability, T/C (compound 10 µM) is 97.2% and 94.1% and 109%.
`CC[C@@]1(O)C(=O)OCc2c1cc1n(c2=O)Cc2cc3c(CN(C)C)c(O)ccc3nc2-1`: the pIC50 was under 7.00. Moreover, the viability, T/C (compound 0.000316 µM) was 111% and 94.9% and 103%. In addition, the viability, T/C (compound 0.001 µM) is 101% and 96.9% and 107%. Moreover, the viability, T/C (compound 0.00316 µM) is 110% (2×) and 111%. The viability, T/C (compound 0.01 µM) is 105% and 101% and 91.5%. Moreover, the viability, T/C (compound 0.0316 µM) is 100% and 91.2% and 89.8%. Also, for the setting “compound 0.1 µM”, the viability, T/C was 90.4% and 80.7% and 84.4%.
Turning to `CCc1c2c(nc3ccc(O)cc13)-c1cc3c(c(=O)n1C2)COC(=O)[C@]3(O)CC`, the pIC50 is 7.00 and 7.08 and 7.03. Besides, where the note is “compound 0.00316 µM”, the viability, T/C was 88.8% and 83.4% and 108%. Further, the viability, T/C (compound 0.01 µM) was 80% and 74.9% and 74%. Also, for the setting “compound 0.0316 µM”, the viability, T/C was 63% and 64.4% and 51.9%. Further, under “compound 0.1 µM”, the viability, T/C was 49.8% and 45.2% and 54.4%. Moreover, the viability, T/C (compound 0.316 µM) is 37.3% and 37.2% and 36.9%. Moreover, the viability, T/C (compound 1 µM) is 25.2% and 26.9% and 20.9%.
On to `CNCc1ccc(-c2[nH]c3cc(F)cc4c3c2CCNC4=O)cc1`, for which the pIC50 is under 5.00. Besides, for the setting “compound 0.0316 µM”, the viability, T/C is 98% and 102% and 119%. Moreover, the viability, T/C (compound 0.1 µM) was 109% and 91.5% and 97.6%. Besides, the viability, T/C (compound 0.316 µM) is 97% and 102% and 112%. In addition, the viability, T/C (compound 1 µM) was 110% and 101% and 96%. The viability, T/C (compound 10 µM) was 111% and 110% and 104%.
